Laboratory results published in patent US8735384B2, “Amino heteroaryl compounds as beta-secretase modulators and methods of use” (Amgen Inc., priority 2010, dated 2014).

Key:
BACE1 = BACE1 (Homo sapiens, UniProt P56817); assay: In vitro enzymatic BACE FRET assay; format: biochemical; conditions: beta secretase enzyme 0.2 nM, FRET substrate 50 nM, pH 4.2; read-out: BACE1 FRET assay (IC50 class)
Outline: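 Enzyme activity was measured as release of quenching from a 50 nM fluorophore/quencher peptide spanning the cleavage site, over 1 h. This followed 1 h pre-incubation of 0.2 nM enzyme with compound dilutions at pH 4.2 (acetate, 10% DMSO, genapol). Tris addition ended the reaction before fluorescence was measured.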

[1] = system: Aβ40 in conditioned medium of cells stably expressing Amyloid Precursor Protein (APP); assay: In vitro BACE cell-based assay (HEK cell assay), Aβ40 sandwich ELISA; conditions: Homo sapiens, HEK293, 24 h, inhibition of Aβ40, 24 h incubation, read-out: HEK cell assay (IC50 class)
Outline: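 Aβ40 in conditioned medium measured after 24 h compound exposure (10-point series, 100 μM or 10 μM start, 0.1% DMSO) of cells stably expressing APP, seeded 40K/well. Detection: pAb40/6E10-biotin sandwich ELISA at 4°C with time-resolved europium read-out; IC50 derived from percent of control.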

Chain of BACE1 (P56817 46-501, species assumed): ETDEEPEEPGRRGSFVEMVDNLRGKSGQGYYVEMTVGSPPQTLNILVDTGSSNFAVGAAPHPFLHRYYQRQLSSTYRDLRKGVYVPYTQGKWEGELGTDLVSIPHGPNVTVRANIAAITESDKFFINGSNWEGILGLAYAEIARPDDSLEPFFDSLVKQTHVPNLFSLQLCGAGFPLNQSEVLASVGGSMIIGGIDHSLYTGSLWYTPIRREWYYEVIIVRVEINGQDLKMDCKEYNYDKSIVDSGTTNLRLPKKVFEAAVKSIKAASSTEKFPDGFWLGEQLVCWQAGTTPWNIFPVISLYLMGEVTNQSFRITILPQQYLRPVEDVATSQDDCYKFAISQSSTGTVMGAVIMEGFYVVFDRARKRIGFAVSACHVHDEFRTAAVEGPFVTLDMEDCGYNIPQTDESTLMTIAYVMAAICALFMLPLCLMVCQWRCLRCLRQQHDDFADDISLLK

Compound	IC50 (BACE1)	IC50 [1]
Cc1cccc(C(=O)N2CCCC2)c1-c1ccc2nc(N)c(N3CCOC(C)C3C)cc2c1 (stereo not shown) [Example 209, (2-(2-amino-3-(2,3-dimethylmorpholino)quinolin-6-yl)-3-methylphenyl)(pyrrolidin-1-yl)methanone]	< 100 nM	501 to 1000 nM
CCOC1CCN(C(=O)c2cccc(C)c2-c2ccc3nc(N)c(N4CCOCC4)cc3c2)CC1 [Example 76, (2-(2-amino-3-morpholinoquinolin-6-yl)-3-methylphenyl)(4-ethoxypiperidin-1-yl)methanone]	< 100 nM	1010 to 5000 nM
Nc1nc2ccc(-c3ccccc3C(=O)N3CCCC3)cc2cc1N1CCOCC1 [Example 146, (2-(2-amino-3-morpholinoquinolin-6-yl)phenyl)(pyrrolidin-1-yl)methanone]	100 to 500 nM	1010 to 5000 nM
Cc1cccc(C(=O)N(C)c2ccc(F)cc2)c1-c1ccc2nc(N)c(N3CCOCC3)cc2c1 [Example 138, 2-(2-amino-3-morpholinoquinolin-6-yl)-N-(4-fluorophenyl)-N,3-dimethylbenzamide]	100 to 500 nM	1010 to 5000 nM
Nc1nc2ccc(-c3ccccc3-n3ncc4c3CCCC4)cc2cc1N1CCOCC1 [Example 33, 3-morpholino-6-(2-(4,5,6,7-tetrahydro-1H-indazol-1-yl)phenyl)quinolin-2-amine]	100 to 500 nM	1010 to 5000 nM
Cc1cccc(C(=O)N2CCCC2)c1-c1ccc2nc(N)c(C3CCCOCC3)cc2c1 (stereo not shown) [Example 206, (2-(2-amino-3-(oxepan-4-yl)quinolin-6-yl)-3-methylphenyl)(pyrrolidin-1-yl)methanone]	< 100 nM	100 to 500 nM
CC(C)(C)C#Cc1ccccc1-c1ccc2nc(N)c(N3CCOCC3)cc2c1 [Example 160, 6-(2-(3,3-dimethylbut-1-ynyl)phenyl)-3-morpholinoquinolin-2-amine]	501 to 1000 nM	> 5000 nM
CC(C)(C)CCc1cccc(C(=O)N2CCOCC2)c1-c1ccc2nc(N)c(N3CCOCC3)cc2c1 [Example 163, (2-(2-amino-3-morpholinoquinolin-6-yl)-3-(3,3-dimethylbutyl)phenyl)(morpholino)methanone]	< 100 nM	< 100 nM
Nc1nc2ccc(-c3c(F)cccc3C(=O)N3CCCC3)cc2cc1N1CCOCC1 [Example 148, (2-(2-amino-3-morpholinoquinolin-6-yl)-3-fluorophenyl)(pyrrolidin-1-yl)methanone]	100 to 500 nM	1010 to 5000 nM
Cc1cccc(C(=O)N2CC[C@@H](F)C2)c1-c1ccc2nc(N)c(N3CCOCC3)cc2c1 [Example 69, (R)-(2-(2-amino-3-morpholinoquinolin-6-yl)-3-methylphenyl)(3-fluoropyrrolidin-1-yl)methanone]	< 100 nM	100 to 500 nM
Cc1cccc(C(=O)N2CCCC(C)(C)C2)c1-c1ccc2nc(N)c(N3CCOCC3)cc2c1 [Example 86, (2-(2-amino-3-morpholinoquinolin-6-yl)-3-methylphenyl)(3,3-dimethylpiperidin-1-yl)methanone]	< 100 nM	100 to 500 nM
Cc1cccc(C(=O)N2CCC(F)(F)CC2)c1-c1ccc2nc(N)c(N3CCOCC3)cc2c1 [Example 109, (2-(2-amino-3-morpholinoquinolin-6-yl)-3-methylphenyl)(4,4-difluoropiperidin-1-yl)methanone]	< 100 nM	501 to 1000 nM
Nc1nc2ccc(-c3ccccc3C(O)C3CCOCC3)cc2cc1N1CCOCC1 (stereo not shown) [Example 12, (2-(2-amino-3-morpholinoquinolin-6-yl)phenyl)(tetrahydro-2H-pyran-4-yl)methanol]	1010 to 5000 nM	> 5000 nM
CCCC(C)N(C)C(=O)c1cccc(C)c1-c1ccc2nc(N)c(N3CCOCC3)cc2c1 (stereo not shown) [Example 120, 2-(2-amino-3-morpholinoquinolin-6-yl)-N,3-dimethyl-N-(pentan-2-yl)benzamide]	< 100 nM	1010 to 5000 nM
CCCC1CCN(C(=O)c2cccc(C)c2-c2ccc3nc(N)c(N4CCOCC4)cc3c2)CC1 [Example 78, (2-(2-amino-3-morpholinoquinolin-6-yl)-3-methylphenyl)(4-propylpiperidin-1-yl)methanone]	< 100 nM	> 5000 nM
Nc1nc2ccc(-c3ccccc3C(=O)OC3CCCC3)cc2cc1N1CCOCC1 [Example 145, cyclopentyl 2-(2-amino-3-morpholinoquinolin-6-yl)benzoate]	< 100 nM	501 to 1000 nM
Nc1nc2ccc(-c3cccc(F)c3C(=O)N3CCCC3)cc2cc1N1CCOCC1 [Example 142, (2-(2-amino-3-morpholinoquinolin-6-yl)-6-fluorophenyl)(pyrrolidin-1-yl)methanone]	1010 to 5000 nM	> 5000 nM
COC1CCCN(C(=O)c2cccc(C)c2-c2ccc3nc(N)c(N4CCOCC4)cc3c2)C1 (stereo not shown) [Example 82, (2-(2-amino-3-morpholinoquinolin-6-yl)-3-methylphenyl)(3-methoxypiperidin-1-yl)methanone]	100 to 500 nM	1010 to 5000 nM
COc1ccccc1N(C)C(=O)c1cccc(C)c1-c1ccc2nc(N)c(N3CCOCC3)cc2c1 [Example 139, 2-(2-amino-3-morpholinoquinolin-6-yl)-N-(2-methoxyphenyl)-N,3-dimethylbenzamide]	< 100 nM	1010 to 5000 nM
Cc1cccc(C(=O)N2CCCC2)c1-c1ccc2nc(N)c(C3CCCCO3)cc2c1 (stereo not shown) [Example 29, (2-(2-amino-3-(tetrahydro-2H-pyran-2-yl)quinolin-6-yl)-3-methylphenyl)(pyrrolidin-1-yl)methanone]	100 to 500 nM	1010 to 5000 nM
CCCCN(C)C(=O)c1cccc(C)c1-c1ccc2nc(N)c(N3CCOCC3)cc2c1 [Example 117, 2-(2-amino-3-morpholinoquinolin-6-yl)-N-butyl-N,3-dimethylbenzamide]	< 100 nM	1010 to 5000 nM
Cc1cccc(C(N)c2ccccn2)c1-c1ccc2nc(N)c(N3CCOCC3)cc2c1 (stereo not shown) [Example 196, 6-(2-(amino(pyridin-2-yl)methyl)-6-methylphenyl)-3-morpholinoquinolin-2-amine]	100 to 500 nM	100 to 500 nM
Cc1cccc(C(N)c2ncccc2Cl)c1-c1ccc2nc(N)c(N3CCOCC3)cc2c1 (stereo not shown) [Example 197, 6-(2-(amino(3-chloropyridin-2-yl)methyl)-6-methylphenyl)-3-morpholinoquinolin-2-amine]	100 to 500 nM	100 to 500 nM
Cc1cccc(C(=O)N2CCCC2)c1-c1ccc2nc(N)c(C3CCOCC3)cc2c1 [Example 28, (2-(2-amino-3-(tetrahydro-2H-pyran-4-yl)quinolin-6-yl)-3-methylphenyl)(pyrrolidin-1-yl)methanone]	< 100 nM	< 100 nM
Cc1cccc(C(=O)N2CCC(C(C)(C)C)CC2)c1-c1ccc2nc(N)c(N3CCOCC3)cc2c1 [Example 93, (2-(2-amino-3-morpholinoquinolin-6-yl)-3-methylphenyl)(4-tert-butylpiperidin-1-yl)methanone]	< 100 nM	501 to 1000 nM
CCCN(C)C(=O)c1cccc(C)c1-c1ccc2nc(N)c(N3CCOCC3)cc2c1 [Example 110, 2-(2-amino-3-morpholinoquinolin-6-yl)-N,3-dimethyl-N-propylbenzamide]	100 to 500 nM	1010 to 5000 nM
